Test results: patent US20250145652A1, “INORGANIC SALTS OF NICOTINAMIDE MONONUCLEOTIDE AS ANTI-AGING AGENTS” (Life Biosciences Inc., priority 2018, published 2025)

Tested on: COV434 cells
Test: NAD cell assay (NAD cycling method), cellular NAD+ levels
Type: cell-based, human
Conditions: NAD levels in COV434 cells, 200 uM, 4 hr; for Fold increase compared to NMN: normalised to protein; for Fold Increase compared to NMN on a molar basis: mole per mole comparison of salt and parent
Description: NAD levels were assayed based on the NAD cycling method of Zhu and Rand, PLoS One (2012), herein incorporated by reference. COV434 cells were maintained in 6 well plates and treated with the indicated compounds at a concentration of 200 uM for 4 hr. Media was removed, plates were washed in cold PBS and cells were scraped down in NAD extraction buffer containing 10 mM nicotinamide, 50 mM Tris HCl, 0.1% Triton X-100. Cells were homogenised by sonication for 5 seconds, and samples were centrifuged at 7,000 g for 5 min at 4 degrees. Aliquots were taken for later protein assay, and samples were then passed through 10 kDa amicon filters at 14,000 g, 30 min at 4 degrees to remove proteins from the sample. Each sample was measured in technical triplicate, with 25 μL sample added to 100 μL ADH cycling mix (0.2 mg/ml alcohol dehydrogenase enzyme, 2% ethanol, 100 mM Tris pH 8.5). Samples were allowed to cycle for 10 min at room temperature, followed by 50 μL addition of an MTT/PMS solution (0.1 mM phenazine methosulfate, 0.8 mM 3-(4,5-Dimethylthiazol-2-yl)-2,5-diphenyltetrazolium bromide), 100 mM Tris-HCl pH 8.5). Plates were then incubated for 15 min and absorbance was measured at 570 nm. NAD concentrations were extrapolated from a standard curve, and normalised to protein concentrations determined by BCA protein assay.
The fold increase is obtained through a direct comparison on a mole per mole between the compared salt and its parent counterpart.

| Structure (SMILES) | Fold increase compared to NMN | Fold Increase compared to NMN on a molar basis |
| --- | --- | --- |
| NC(=O)c1ccc[n+]([C@@H]2O[C@H](COP(=O)([O-])[O-])[C@@H](O)[C@H]2O)c1.[Na+] [Compound I-001, Sodium ((2R,3S,4R,5R)-5-(3-carbamoylpyridin-1-ium-1-yl)-3,4-dihydroxytetrahydrofuran-2-yl)methyl phosphate] | 1.7 | 1.78 |
| NC(=O)c1ccc[n+]([C@@H]2O[C@H](COP(=O)([O-])O)[C@@H](O)[C@H]2O)c1 [NMN, nicotinamide mononucleotide] | 1.0 | 1.0 |
